# Laboratory results: patent EP2316926B1, “Enantioselective production of alpha-hydroxy carbonyl compounds” (priority 2009, dated 2011)
# Experiments:
# Assay type in all cases: biochemical
# [1] = target: T1, Gox0644 (Gluconobacter oxydans, UniProt Q5FT75); experiment: Kinetic constants from purified enzyme by Lineweaver-Burk plots
# Procedure: (§1) Determination of pH and temperature optima and enzyme kinetics: The optimum pH for enzyme activities was determined by a modified method of Salusjärvi, T. et al., Appl. Microbiol. Biotechnol. 65:306-314 (2004) using the following buffer system (50 mM final concentration each): sodium acetate pH 4.5 - 6.5, potassium phosphate pH 6.5 - 8.0, Tris-HCl pH 8.0 - 10. Temperature optima for the biocatalysts were determined under standard reaction conditions at temperatures ranging from 20 - 80 °C. The Michaelis constant (Km) for the proteins was determined from purified enzyme by Lineweaver-Burk plots. Assays were performed at optimum pH for each enzyme and at 30 °C using the best substrate and a targeted substrate. The Km for each substrate was calculated using concentrations of 0.0025 to 10 mM, and the Km NAD(P)H and NAD(P) was calculated using concentrations of 0.01 to 0.5 mM
# (§2) 2.9 Kinetic parameters of the keto carbonyl reductases: Kinetic constants were determined from purified enzyme by Lineweaver-Burk plots. The Km and Vmax values for the substrates were calculated using concentrations of 0.025 to 10 mM. The optimal pH values and temperatures for enzyme activities are also shown in Tab. 8. Table 8: Summary of kinetic parameters
# [2] = target: T2, Gox1615 (Gluconobacter oxydans, UniProt Q5FQJ0); experiment: as above
# T2 sequence (Q5FQJ0 1-332): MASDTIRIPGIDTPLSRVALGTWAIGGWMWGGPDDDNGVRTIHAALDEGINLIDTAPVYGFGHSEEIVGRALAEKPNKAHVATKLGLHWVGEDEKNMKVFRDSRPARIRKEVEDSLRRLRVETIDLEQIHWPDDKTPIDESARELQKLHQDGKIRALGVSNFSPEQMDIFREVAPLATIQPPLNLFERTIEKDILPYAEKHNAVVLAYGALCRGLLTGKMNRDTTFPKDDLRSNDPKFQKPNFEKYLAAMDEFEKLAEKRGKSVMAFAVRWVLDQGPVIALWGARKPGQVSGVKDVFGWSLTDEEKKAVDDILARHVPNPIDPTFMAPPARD
# Procedure: as §1, §2
# [3] = target: T1, Gox0644; experiment: Coupled-enzyme biotransformation with cofactor regeneration, product determined by NMR (regio- and stereoselectivity)
# Procedure: (§3) Measurement of enzyme activity: NADPH-dependent α-ketocarbonyl reductases were assayed by a routine method used for NAD(P)-linked enzymes by recording the rate of decrease of NADPH at 340 nm (ε = 6.22 mM^-1 x cm^-1)) with substrates at 30 °C. The reaction mixture (1 ml) for reduction of α-ketocarbonyl substrates contained 10 mM substrate, 40 mM potassium phosphate buffer pH 7.0, 0.025 mM NAD(P)H and the enzyme. Reactions were induced by addition of enzyme or substrate. One unit was defined as the amount of enzyme activity catalyzing the conversion of 1 µmol of pyridine nucleotide per min at 30 °C. NMR Analysis of Biotransformation Products: Biotransformations were extracted with equal volumes of CDCl3. and ^13C NMR spectra were recorded on a Bruker Avance 300 DPX spectrometer operating at 300 MHz for ^1H NMR and at 75 MHz for ^13C NMR, respectively. Spectra were processed using Bruker TonSpin 1.3 for Windows software and calibrated to the residual solvent peak of CDCl3 (δH = 7.26 / δC = 77.0).
# (§4) Determination of the absolute configuration of the biotransformation product 2-hydroxy-pentan-3-one using chiral NMR shift solvents: Chiral NMR shift reagent (R,R)- and (S,S)-bis-α-methylbenzylamine-para-methyl (BMBA-p-Me) was prepared with small modifications according to the method reported by Kobayashi, Y et al., Tetrahedron Lett. 44: 7489-7491 (2003). In brief, the method of Marshall, J.A. and Mikowski, A. M., Org. Lett. 8:4375-4378 (2006) was used to synthesize 1,3-dibromo-2-methylpropane from 1,3-dihydroxy-2-methylpropane. Diisopropylethylamine (25.5 g), triphenylphosphine (20.1 g) and CBr4 (25.5 g) were sequentially added to a stirring solution of […] in 100 ml CH2Cl2 at 0 °C. The reaction was stirred for 3-4 h at 0 °C and concentrated under reduced pressure to give a green-brown oil. The oil was dissolved in diethyl ether and water (100 ml each) and the aqueous layer was extracted three times with diethyl ether. The organic extracts were combined and washed with water and brine, and dried over MgSO4. The reaction was concentrated under reduced pressure and applied to flash chromatography on silica 60 (230-400 mesh, 100% cyclohexane). Fractions containing the 1,3-dibromo-2-methylpropane product were combined (as judged by Si-TLC [100% cyclohexene]) and concentrated under reduced pressure resulting in a brown-yellow oil. The dibromopropane oil was used for the synthesis of (R,R)- and (S,S)-BMBA-p-Me as described by (Kobayashi, Y. et al., Org. Lett. 4(3):411-414 (2002). The crude oil was distilled by Kugelrohr at 240 °C to give crude BMPA-p-Me (yellow oil). BMBA-p-Me was purified by HPLC using a C18 column (Waters Xterra, 250 x 4.6 mm) at a flow rate of 0.8 ml min^-1 and a 40 min linear gradient of 50-100 % MeOH at ambient temperature. Fractions were concentrated under reduced pressure and BMBA-p-Me was identified by ^1H-NMR (colorless hygroscopic oil).
# (§5) Approximately 7.5 mg of the extracted product 2-hydroxy-pentan-3-one was added to 15 mg (R,R)- or (S,S)-BMBA-p-Me (dissolved in 200-300 µl CDCl3) and analyzed by ^13C NMR with the readout adjusted to 0.001 ppm/point (sw = 239 ppm, td = 512k) (Fiorentino, A. et al., Tetrahedron., 62:8952-8958 (2006)). The absolute configuration was determined based on the sign of ΔδRR-SS (δ(R,R)-BMBA-p-Me - δ(S,S)-BMBA-p-Me) for the α-carbons adjacent to the hydroxymethine unit as formulated in the following model shown in Scheme 3 (valid for saturated secondary alcohols of acyclic and cyclic compounds): [drawing 7]
# (§6) Cofactor regeneration: A prerequisite for the production of α-hydroxycarbonyl compounds is the regeneration of the expensive coenzymes and the stability of the protein catalysts. By coupling two coenzyme-dependent enzyme reactions, NADPH can be continuously regenerated. […]
# [4] = target: T2, Gox1615; experiment: as above
# Procedure: as §3, §4, §5, §6
# [5] = NMR with chiral solvent BMBA-p-Me
compound,measurement,setting,value
"CCC(=O)C(C)=O [2,3-pentanedione]",Vmax,[1],70 U/mg protein
same,Vmax,[2],7.0 U/mg protein
same,Product (stereoselective reduction),[3]; [5],2R-hydroxy-pentan-3-one
same,Product (regioselective reduction),[3]; determined by NMR analysis,2-hydroxy-pentan-3-one
same,Product (stereoselective reduction),[4]; [5],2S-hydroxy-pentan-3-one
same,Product (regioselective reduction),[4]; determined by NMR analysis,2-hydroxy-pentan-3-one
